Data published in patent US9446039B2, “Aminoheteroaryl compounds as MTH1 inhibitors” (CEMM—FORSCHUNGSZENTRUM FÜR MOLEKULARE MEDIZIN GMBH, priority 2012, dated 2016).

Legend:
Type in all cases: binding
[1] = target: T1, SW480 colon carcinoma cells lysate proteins (Homo sapiens, UniProt Q15785); conditions: PreyGene TOMM34
T1 sequence (Q15785 1-309): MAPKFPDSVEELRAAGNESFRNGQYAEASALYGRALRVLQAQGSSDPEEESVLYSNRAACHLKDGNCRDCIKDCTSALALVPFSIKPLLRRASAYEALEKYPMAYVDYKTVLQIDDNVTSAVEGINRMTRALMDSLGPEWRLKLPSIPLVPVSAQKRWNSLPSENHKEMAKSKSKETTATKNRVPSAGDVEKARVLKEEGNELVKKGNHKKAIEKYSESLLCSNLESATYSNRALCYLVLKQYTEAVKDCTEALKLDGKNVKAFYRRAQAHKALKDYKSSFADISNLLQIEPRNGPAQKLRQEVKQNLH

[2] = target: T2, SW480 colon carcinoma cells lysate proteins (Homo sapiens, UniProt P55145); conditions: PreyGene MANF
T2 sequence (P55145 25-182): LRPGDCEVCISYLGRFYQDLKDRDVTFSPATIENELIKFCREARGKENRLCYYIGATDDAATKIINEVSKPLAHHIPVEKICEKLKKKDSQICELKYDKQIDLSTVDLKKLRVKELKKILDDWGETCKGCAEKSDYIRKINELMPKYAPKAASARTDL

[3] = target: SW480 colon carcinoma cells lysate proteins (Homo sapiens, UniProt Q9BZK3); conditions: PreyGene NACAP1; SW480 cells
[4] = target: SW480 colon carcinoma cells lysate proteins (Homo sapiens, UniProt P61204); conditions: PreyGene ARF3
Chain of SW480 colon carcinoma cells lysate proteins (Homo sapiens, UniProt P61204) (P61204 whole entry): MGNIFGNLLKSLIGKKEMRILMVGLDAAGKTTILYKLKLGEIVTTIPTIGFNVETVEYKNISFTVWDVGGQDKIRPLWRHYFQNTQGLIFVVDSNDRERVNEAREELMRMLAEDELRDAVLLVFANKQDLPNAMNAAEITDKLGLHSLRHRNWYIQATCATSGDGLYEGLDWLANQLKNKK

[5] = target: T3, SW480 colon carcinoma cells lysate proteins (Homo sapiens, UniProt Q15084); conditions: PreyGene PDIA6
T3 sequence (Q15084 20-440): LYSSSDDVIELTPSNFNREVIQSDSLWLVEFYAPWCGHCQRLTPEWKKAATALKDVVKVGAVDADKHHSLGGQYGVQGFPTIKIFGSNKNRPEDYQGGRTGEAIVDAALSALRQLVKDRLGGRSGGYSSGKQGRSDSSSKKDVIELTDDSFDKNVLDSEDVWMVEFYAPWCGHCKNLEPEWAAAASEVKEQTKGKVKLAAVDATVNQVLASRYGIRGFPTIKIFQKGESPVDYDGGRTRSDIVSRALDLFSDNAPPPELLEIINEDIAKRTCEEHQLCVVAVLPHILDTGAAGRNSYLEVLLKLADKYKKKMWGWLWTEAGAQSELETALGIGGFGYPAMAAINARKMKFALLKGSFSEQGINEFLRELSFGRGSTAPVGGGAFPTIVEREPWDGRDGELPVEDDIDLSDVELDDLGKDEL

[6] = target: T4, SW480 colon carcinoma cells lysate proteins (Homo sapiens, UniProt Q5XKE5); conditions: PreyGene KRT79; SW480 cells
T4 sequence (Q5XKE5 1-535): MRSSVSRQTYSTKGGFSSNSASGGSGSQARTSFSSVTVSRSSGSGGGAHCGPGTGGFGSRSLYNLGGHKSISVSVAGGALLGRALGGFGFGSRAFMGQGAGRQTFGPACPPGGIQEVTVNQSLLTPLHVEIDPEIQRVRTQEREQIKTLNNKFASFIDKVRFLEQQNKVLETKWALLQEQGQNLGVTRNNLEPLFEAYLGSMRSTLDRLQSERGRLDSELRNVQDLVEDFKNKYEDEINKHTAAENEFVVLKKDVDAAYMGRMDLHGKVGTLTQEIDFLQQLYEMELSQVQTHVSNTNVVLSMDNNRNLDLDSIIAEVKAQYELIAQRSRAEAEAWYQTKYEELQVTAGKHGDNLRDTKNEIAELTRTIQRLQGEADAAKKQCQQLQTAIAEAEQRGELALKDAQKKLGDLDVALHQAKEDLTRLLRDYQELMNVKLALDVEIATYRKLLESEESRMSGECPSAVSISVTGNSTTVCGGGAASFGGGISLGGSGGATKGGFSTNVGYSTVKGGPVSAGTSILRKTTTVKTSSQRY

[7] = target: SW480 colon carcinoma cells lysate proteins (Homo sapiens, UniProt P00441); conditions: PreyGene SOD1
Chain of SW480 colon carcinoma cells lysate proteins (Homo sapiens, UniProt P00441) (P00441 whole entry): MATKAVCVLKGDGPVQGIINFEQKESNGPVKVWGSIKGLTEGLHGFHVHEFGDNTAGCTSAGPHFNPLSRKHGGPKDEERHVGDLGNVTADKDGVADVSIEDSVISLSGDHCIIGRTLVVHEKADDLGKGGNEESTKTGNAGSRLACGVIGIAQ

[8] = target: T5, SW480 colon carcinoma cells lysate proteins (Homo sapiens, UniProt Q9H910); conditions: PreyGene HN1L
T5 sequence (Q9H910 1-190): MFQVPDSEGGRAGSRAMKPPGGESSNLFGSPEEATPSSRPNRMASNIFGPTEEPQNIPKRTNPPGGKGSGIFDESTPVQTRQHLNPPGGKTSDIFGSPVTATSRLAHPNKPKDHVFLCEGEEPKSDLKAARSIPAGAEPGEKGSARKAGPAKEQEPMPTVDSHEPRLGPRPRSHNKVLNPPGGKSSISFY

[9] = target: SW480 colon carcinoma cells lysate proteins (Homo sapiens, UniProt P30040); conditions: PreyGene ERP29

C[C@H](Oc1cc(-c2cnn(C3CCNCC3)c2)cnc1N)c1c(Cl)ccc(F)c1Cl [(5)-crizotinib]
AvgP [1]: 0.1791 | SC.Exp. 1-1 [1]: 0 | SC.Exp. 1-2 [1]: 2 | SC.Exp. 2-1 [1]: 0 | SC.Exp. 2-2 [1]: 0 | Sum (SC.Exp.) [1]: 2 | AvgP [2]: 0.3221 | SC.Exp. 1-1 [2]: 2 | SC.Exp. 1-2 [2]: 1 | SC.Exp. 2-1 [2]: 0 | SC.Exp. 2-2 [2]: 0 | Sum (SC.Exp.) [2]: 3 | AvgP [3]: 0 | SC.Exp. 1-1 [3]: 0 | SC.Exp. 1-2 [3]: 0 | SC.Exp. 2-1 [3]: 1 | SC.Exp. 2-2 [3]: 0 | SC.Exp. Sum [3]: 1 | AvgP [4]: 0.1881 | SC.Exp. 1-1 [4]: 2 | SC.Exp. 1-2 [4]: 0 | SC.Exp. 2-1 [4]: 0 | SC.Exp. 2-2 [4]: 0 | Sum (SC.Exp.) [4]: 2 | AvgP [5]: 0.4427 | SC.Exp. 1-1 [5]: 3 | SC.Exp. 1-2 [5]: 4 | SC.Exp. 2-1 [5]: 0 | SC.Exp. 2-2 [5]: 0 | Sum (SC.Exp.) [5]: 7 | AvgP [6]: 0 | SC.Exp. 1-1 [6]: 0 | SC.Exp. 1-2 [6]: 1 | SC.Exp. 2-1 [6]: 0 | SC.Exp. 2-2 [6]: 0 | SC.Exp. Sum [6]: 1 | AvgP [7]: 0.3882 | SC.Exp. 1-1 [7]: 3 | SC.Exp. 1-2 [7]: 3 | SC.Exp. 2-1 [7]: 0 | SC.Exp. 2-2 [7]: 0 | Sum (SC.Exp.) [7]: 6 | AvgP [8]: 0.1898 | SC.Exp. 1-1 [8]: 0 | SC.Exp. 1-2 [8]: 2 | SC.Exp. 2-1 [8]: 0 | SC.Exp. 2-2 [8]: 0 | Sum (SC.Exp.) [8]: 2 | AvgP [9]: 0.1841 | SC.Exp. 1-1 [9]: 2 | SC.Exp. 1-2 [9]: 0 | SC.Exp. 2-1 [9]: 0 | SC.Exp. 2-2 [9]: 0 | Sum (SC.Exp.) [9]: 2
